Laboratory results reported in ChEMBL document CHEMBL1255320, “Anti-BK virus activity of nucleoside analogs” (Antimicrob Agents Chemother, 2008).

Key:
[1] = Selectivity index, ratio of CC50 for human WI38 cells to EC50 for BK polyomavirus ATCC VR837; type: toxicity, cell-based, WI-38; settings: read-out: Selectivity Index
BK polyomavirus = assay: Antimicrobial activity against BK polyomavirus ATCC VR837 infected in human WI38 cells assessed as reduction in viral titer after 7 days by PCR analysis; type: functional, organism-based; settings: Betapolyomavirus hominis, ATCC VR837, WI-38, 168 h
[2] = Cytotoxicity against human WI38 cells by neutral red assay; type: cell-based, WI-38

**Q.** Which selectivity ratio [1] does the source give for `CCCCCCCC/C=C\CCCCCCCC(=O)Nc1ncnc2c1ncn2CCOCP(=O)(O)O` here?
**A.** 58.9

**Q.** And the EC50 (BK polyomavirus)?
**A.** 1 µM

**Q.** What about the CC50 [2] of the same compound?
**A.** 165 µM

**Q.** Which selectivity ratio [1] does the source give for `CCCCCCCC/C=C\CCCCCCCCOC(=O)Nc1ncnc2c1ncn2CCOCP(=O)(O)O` here?
**A.** 233

**Q.** And the EC50 (BK polyomavirus)?
**A.** 2.3 µM

**Q.** And the CC50 [2]?
**A.** 529 µM

**Q.** Which results are given for `Nc1nc(=O)c2ncn(COCCOP3(=O)OCc4ccccc4O3)c2[nH]1` (stereo unspecified)?
**A.** selectivity ratio [1]: 1; EC50 (BK polyomavirus): > 100 µM; CC50 [2]: 100 µM

**Q.** Which selectivity ratio [1] does the source give for `Nc1ncnc2c1ncn2/C=C1/CC1(CO)CO` here?
**A.** 11.9

**Q.** And the EC50 (BK polyomavirus)?
**A.** 40.8 µM

**Q.** What about the CC50 [2] of the same compound?
**A.** 312 µM

**Q.** With `CCCCCCCCCCCCCCCCOCCCOP(=O)(O)CO[C@H](CO)Cn1cnc2c(N)ncnc21` as the compound, how does the selectivity ratio [1] read?
**A.** 58.5

**Q.** What about the EC50 (BK polyomavirus) of the same compound?
**A.** 0.02 µM

**Q.** And the CC50 [2]?
**A.** 0.8 µM

**Q.** Which results are given for `CCCCCCCCCCCCCCCCCCOCCOP(=O)(O)CO[C@H](CO)Cn1cnc2c(N)ncnc21`?
**A.** selectivity ratio [1]: 11.7; EC50 (BK polyomavirus): 0.03 µM; CC50 [2]: 0.5 µM

**Q.** For `Cc1cccc2c1OP(=O)(OC[C@H]1O[C@@H](n3cc(/C=C/Br)c(=O)[nH]c3=O)CC1O)OC2` (single isomer, unassigned), which selectivity ratio [1] is on record?
**A.** 2.3

**Q.** And the EC50 (BK polyomavirus)?
**A.** 41.9 µM

**Q.** And the CC50 [2]?
**A.** 98.3 µM

**Q.** With `CC(C)(C)C(=O)OCOP(=O)(COCCn1cnc2c(N)ncnc21)OCOC(=O)C(C)(C)C` [ADEFOVIR DIPIVOXIL] as the compound, how does the selectivity ratio [1] read?
**A.** 5.7

**Q.** What about the EC50 (BK polyomavirus) of the same compound?
**A.** 0.7 µM

**Q.** And the CC50 [2]?
**A.** 3.1 µM

**Q.** Which selectivity ratio [1] does the source give for `Nc1ncnc2c1ncn2CCOCP(=O)(O)O` [ADEFOVIR] here?
**A.** 1.3

**Q.** What about the EC50 (BK polyomavirus) of the same compound?
**A.** 95.8 µM

**Q.** What about the CC50 [2] of the same compound?
**A.** 125 µM

**Q.** Which selectivity ratio [1] does the source give for `O=c1[nH]cnc2c1ncn2[C@H]1CC[C@@H](CO)O1` [DIDANOSINE] here?
**A.** 1

**Q.** And the EC50 (BK polyomavirus)?
**A.** > 100 µM

**Q.** And the CC50 [2]?
**A.** > 100 µM

**Q.** What does the source list for `CC(=O)OCC(CCn1cnc2cnc(N)nc21)COC(C)=O` [FAMCICLOVIR]?
**A.** selectivity ratio [1]: 1; EC50 (BK polyomavirus): > 0.78 µM; CC50 [2]: > 0.78 µM

**Q.** What does the source list for `Nc1nc2c(ncn2/C=C2/CC2(CO)CO)c(=O)[nH]1` [FILOCICLOVIR]?
**A.** selectivity ratio [1]: 1; EC50 (BK polyomavirus): > 100 µM; CC50 [2]: > 100 µM

**Q.** For `Nc1ccn([C@@H]2CS[C@H](CO)O2)c(=O)n1` [LAMIVUDINE], which selectivity ratio [1] is on record?
**A.** 1

**Q.** And the EC50 (BK polyomavirus)?
**A.** > 100 µM

**Q.** And the CC50 [2]?
**A.** > 100 µM

**Q.** Which selectivity ratio [1] does the source give for `Cc1cn([C@H]2C=C[C@@H](CO)O2)c(=O)[nH]c1=O` [STAVUDINE] here?
**A.** 1

**Q.** And the EC50 (BK polyomavirus)?
**A.** > 100 µM

**Q.** And the CC50 [2]?
**A.** > 100 µM

**Q.** With `Nc1nc(O)c2ncn(/C=C3/CC3CO)c2n1` (stereo unspecified) [SYNGUANOL] as the compound, how does the selectivity ratio [1] read?
**A.** 1

**Q.** What about the EC50 (BK polyomavirus) of the same compound?
**A.** > 100 µM

**Q.** What about the CC50 [2] of the same compound?
**A.** > 100 µM

**Q.** Which results are given for `CC(C)OC(=O)OCOP(=O)(CO[C@H](C)Cn1cnc2c(N)ncnc21)OCOC(=O)OC(C)C` [TENOFOVIR DISOPROXIL]?
**A.** selectivity ratio [1]: 1; EC50 (BK polyomavirus): > 50 µM; CC50 [2]: > 50 µM

**Q.** With `Cc1cn([C@H]2C[C@H](N=[N+]=[N-])[C@@H](CO)O2)c(=O)[nH]c1=O` [ZIDOVUDINE] as the compound, how does the selectivity ratio [1] read?
**A.** 1

**Q.** And the EC50 (BK polyomavirus)?
**A.** > 100 µM

**Q.** And the CC50 [2]?
**A.** > 100 µM
